Results: patent US20210283082A1, “PHARMACEUTICAL COMPOSITION FOR PREVENTION OR TREATMENT OF KIDNEY DAMAGE” (National University Corporation Kanazawa University, priority 2018, published 2021)
Entries after “also recorded” stand apart in the source; their conditions may differ.

Columns and labels:
[1] = test system: mice treated by renal ischemia reperfusion; assay: Renal ischemia reperfusion, PAS staining and ATN score of kidney tissue sections; format: in vivo
Procedure: The animals were reared with free access to water and feed under conditions with an SPF environment and 12-hour light-dark cycling. C57BL/6J mice were purchased from Clea Japan, Inc. (Osaka). Male 12- to 16-week-old mice were treated by renal ischemia reperfusion (hereunder also referred to as “I/R”). The renal pedicles were clamped with a non-traumatic clip (Natsume Seisakusho, Tokyo) under pentobarbital anesthesia to elicit ischemia. The clips were released after 40 minutes. The body temperature was kept at 37° C. during treatment. The mice were reared with free access to water (control) or 20 mM D-serine-containing water, prior to 14 days after IR treatment. On day 0, 2, 5, 7 and 10 after IR treatment, the kidney tissues were sampled. Kidneys sampled on day 0, 2 and 10 were fixed with 10% neutral buffered formalin and embedded in paraffin, and then stained with periodic acid-Schiff (PAS staining). The stained slices were photographed with a bright-field microscope (FIG. 1). Debris stained with PAS (skin boundary) or brush border (skin boundary and cortical region) were quantitatively evaluated in at least 10 different locations. Renal tubule necrosis (A), intraluminal debris (B) and brush border region (C) were evaluated by ATN score (0: none, 1: mild, 2: moderate, 3: severe), with the results shown in FIGS. 2(A) to (C). Sample evaluation was carried out blind.

[2] = Blood D-serine concentration after free provision of 20 mM D-serine water; format: in vivo; settings: mice reared with free access to 20 mM D-serine-containing water
Procedure: The animals were reared with free access to water and feed under conditions with an SPF environment and 12-hour light-dark cycling. C57BL/6J mice were purchased from Clea Japan, Inc. (Osaka).
The mice were reared in an environment allowing free access to water (control) or 20 mM D-serine-containing water, and the blood D-serine concentrations were measured. The blood D-serine concentrations were determined by total amino acid optical isomer analysis using a D, L-amino acid simultaneous high sensitivity analysis system developed by Zaitsu et al. (Japanese Patent No. 4291628). The details regarding the analysis conditions for each amino acid are described in Miyoshi Y. et al., J. Chromatogr. B, 879:3184(2011) and Sasabe, J. et al., Proc. Natl. Acad. Sci. U.S.A., 109:627(2012). In brief, serum and urine amino acids were fluorescently derivatized with NBD-F (4-fluoro-7-nitro-2,1,3-benzooxadiazole, Tokyo Kasei Kogyo Co., Ltd.) and supplied to an HPLC system (NANOSPACE SI-2 Series, product of Shiseido Corp.). NBD-amino acids separated two-dimensionally using an in-house reversed-phase column with an octadecyl group as the stationary phase and a chiral column with an amino acid derivative as the stationary phase, were quantitatively analyzed after detection at an excitation wavelength of 470 nm and a detection wavelength of 530 nm. […]

rats = settings: intraperitoneal, 800 mg/kg (NPL 3), 400 mg/kg (NPL 4) or 250 mg/kg (NPLs 5 and 6); cited from earlier work
[3] = test system: mice treated by renal ischemia reperfusion; assay: Renal ischemia reperfusion, F4/80 immunostaining of kidney tissue (macrophages); format: in vivo; settings: day 5 after ischemia reperfusion; 20 mM D-serine water vs water
Procedure: The animals were reared with free access to water and feed under conditions with an SPF environment and 12-hour light-dark cycling. C57BL/6J mice were purchased from Clea Japan, Inc. (Osaka). Male 12- to 16-week-old mice were treated by renal ischemia reperfusion (hereunder also referred to as “I/R”). The renal pedicles were clamped with a non-traumatic clip (Natsume Seisakusho, Tokyo) under pentobarbital anesthesia to elicit ischemia. The clips were released after 40 minutes. The body temperature was kept at 37° C. during treatment. The mice were reared with free access to water (control) or 20 mM D-serine-containing water, prior to 14 days after IR treatment. On day 0, 2, 5, 7 and 10 after IR treatment, the kidney tissues were sampled. Renal samples harvested on day 0 and day 5 were fixed with 10% neutral buffered formalin and supplied for immunostaining using F4/80 antibody (Invitrogen, catalog #: MF48,000). F4/80 is a protein expressed specifically by macrophages, and it allows visualization of macrophages in kidney tissue. In the water-administered control group, cells stained with F4/80 were found accumulated in kidney tissue (day 5), but in the D-serine-administered group such cellular accumulation was minimal (FIG. 3(A)). The regions stained with F4/80 in the kidney tissue harvested on day […] were measured and shown (FIG. 3(B)).

N[C@H](CO)C(=O)O [D-serine]
grades of necrosis, intraluminal debris and brush border region (ATN score) ([1]; 0, 2, 5, 7 and 10 days after ischemia reperfusion, compared to the group given water): improved | PAS staining intensity of kidney tissue section (accumulation of inflammatory cells such as neutrophils and eosinophils) ([1]; day 10 after ischemia reperfusion, 20 mM D-serine water vs water): no such change in staining intensity | protecting effect on the kidneys ([1]; mice, drinking water containing 20 mM D-serine, blood concentration 100 nmol/mL): able to exhibit a protecting effect on the kidneys | blood D-serine concentration [2]: 100 nmol/mL | nephrotoxicity (rats): causes nephrotoxicity | F4/80 staining of kidney tissue (accumulation of macrophages and monocytes) [3]: little change in staining intensity; also recorded: minimal
